Marks after values point to notes of the source that are not given here.
Assays:
GABAARs = assay: Whole-cell voltage-clamped recordings from hippocampal DGCs in slices (Itonic, mIPSCs); type: cell-based, rats; details: for GABAergic Itonic: basal Itonic 20 pA
Excerpt: (§1) 2) Whole-Cell Patch-Clamp Recordings from Brain Slices. Transverse slices (400 lm) of dorsal hippocampus were obtained from wt and TG-SwDI mice (male, 20 months old) using a vibratome (VT 100; Technical Products International). Slices were perfused continuously with artificial CSF (ACSF) composed of the following (in mM): 125 NaCl, 2.5 KCl, 2 CaCl2, 2 MgCl2, 26 NaHCO3, and 10 D-glucose. The ACSF was bubbled continuously with 95% O2/5% CO2 to ensure adequate oxygenation of slices and a pH of 7.4 and kept at 34±0.5° C. for perfusion. TTX (0.5 μM), APV (40 μM), CNQX (10 μM), and CGP54626 (1 μM, GABABR antagonist) were added to ACSF to pharmacologically isolate GABAAR-mediated mIPSCs. Patch electrodes were filled with internal solution containing the following (in mM): 137 CsCl, 2 MgCl2, 1 CaCl2, 11 EGTA, 10 HEPES, and 3 ATP, pH adjusted to 7.30 with CsOH. Recordings targeted dentate gyms granule cells (DGCs) of hippocampal slices. Voltage-clamp whole-cell recording was performed using a patch clamp amplifier 3) EPM: All animals were tested anxiety levels on EPM. Animals were placed on the central area of the maze, tested for 5 min and video recorded. The following measures were scored: number of entries into open arms, closed arms, or center platform and time spent in each of these areas. Data were reported as % of number of entries in arms, % of time spent in different entries, and number of total entries.
To evaluate whether DHM-Piperidine Complex (D-P) can still potentiate GABAARs, whole-cell voltage-clamped recordings from hippocampal DGCs in slices were performed to test D-P and compared with DHM effects on GABAergic tonic current (Itonic) and miniature inhibitory postsynaptic currents (mIPSCs). […] Compared with DHM enhancing GABAergic Itonic from 20 pA (basal Itonic)→28 pA→31 pA→52 pA→55 pA, D-P enhancing GABAergic Itonic from 20 pA (basal Itonic)→35 pA→42 pA →65 pA→70 pA (Table 1).

TG-mice [1] = assay: Novel Object Recognition (NOR); type: in vivo; details: 1 mg/kg oral in 2% sucrose, 3 months, untreated TG 51.2±3.6%, wt 68.9±6.8%
Method: 4) Memory Test Protocol. Novel Object Recognition (NOR): Day 1-3: Habituation (once/day). Top open containers (open field) were used with video camera to record animal behavior. An animal was put into a container with no objects for 5 min. Context remained the same for each animal.
Day 4, Familiarization: Two identical objects (toys-FO: familiar object) were put into the container at specific positions. Then animals were put into the container to explore the objects for 5 min. Retention Trial 1.5 h: Each animal was placed in its home cage for 1.5 h after the familiarization. One of the toys was replaced with a new toy (NO, novel object and very different from FO). […]
Day 5, Retention Trial 24 h: We placed another new toy (NO) along with an original object (FO) in the container. […] We scored the animal behavior offline according to how long the animal spent exploring each object. The Object Recognition Index (ORI) was calculated, such that ORI=(tn−tf)/(tn+tf), where tf and tn represent times of exploring the familiar and novel objects, respectively.
Mice were divided into four groups: (1) C57BL/6 wt male mice were treated with oral administration of 2% sucrose; (2) C57B1/6 wt male mice with oral administration of 1 mg/kg D-P in 2% sucrose; (3) TG-mice with oral administration of 2% sucrose; and (4) TG-mice with 1 mg/kg D-P in 2% sucrose. […] Next, we evaluated NCR (FIG. 3C). The RI was calculated.

TG-mice [2] = assay: Elevated plus maze (EPM), anxiety in TG-mice; type: in vivo; details: 2 mg/kg, 3 months
Excerpt: as §1, with “Patch electrodes were filled with internal solution containing the following (in mM): 137 CsCl, 2 MgCl2, 1 CaCl2, 11 EGTA, 10 HEPES, and 3 ATP, pH adjusted to 7.30 with CsOH. Recordings targeted dentate gyms granule cells (DGCs) of hippocampal slices. Voltage-clamp whole-cell recording was performed using a patch clamp amplifier 3) EPM: All animals were tested anxiety levels on EPM.” left out, “Data were reported as % of number of entries in arms, % of time spent in different entries, and number of total entries.” left out
6) The elevated plus maze assay (EPM) was performed in a quiet and dark room with only a low power red light. […] were placed on the central area of the maze, and their behavior video recorded for 5 min. The number of entries into open arms, closed arms, or center platform and time spent in each of these areas were scored during off-line analysis. […]
Locomotor activity was assayed with open field test. Running distance is one of the parameters quantifying locomotor activity (FIG. 4A). […]

[3] = Six-month long-term toxicity evaluation (metabolic rate); type: in vivo; details: male Sprague Dawley rats, gavage 1, 10 and 500 mg/kg daily, six months
Method: To evaluate D-P's safety, we tested dosages of 1, 10, and 500 mg/kg (500 time high concentration) of D-P in rats. Sprague Dawley rats, male, body weight starting at 175±5 g, were used in this study. Control group rats were gavaged SUC 20 ml/kg, and D-P group rats were gavaged 1, 10, and 500 mg/kg D-P every day for six months.

Water solubility = type: physicochemical; details: compared with natural DHM

For “piperidin-1-ium (2R,3R)-2-(3,4-dihydroxy-5-oxidophenyl)-3,5-dihydroxy-4-oxochroman-7-olate [D-P]”, the “Itonic, percent in brackets (increase over basal)” value (GABAARs; 0.1 μM) was “(75%)*”, the “mIPSCs (area potentiated)” value (GABAARs; 0.1 μM) was 16.7%* and the “GABAergic Itonic” value (GABAARs; 0.1 μM) was 35 pA. The “Itonic, percent in brackets (increase over basal)” value (GABAARs; 0.3 μM) was “(110%)*”, the “mIPSCs (area potentiated)” value (GABAARs; 0.3 μM) was 23.3%* and the “GABAergic Itonic” value (GABAARs; 0.3 μM) was 42 pA. The “Itonic, percent in brackets (increase over basal)” value (GABAARs; 1 μM) was “(225%)*”, the “mIPSCs (area potentiated)” value (GABAARs; 1 μM) was 100.0%* and the “GABAergic Itonic” value (GABAARs; 1 μM) was 65 pA. For the same substance, the “Itonic, percent in brackets (increase over basal)” value (GABAARs; 10 μM) was “(250%)*”, the “mIPSCs (area potentiated)” value (GABAARs; 10 μM) was 133.3%* and the “GABAergic Itonic” value (GABAARs; 10 μM) was 70 pA. For the same substance, the “Object Recognition Index (ORI)” value (TG-mice [1]) was 70.1±6.8%, the “time in open and closed arms (EPM)” value (TG-mice [2]) was “spent a similar amount of time in each arm” and the metabolic rate [3] was “did not alter the metabolic rate”. The water solubility (Water solubility) was “can be dissolved into water”.
